Data: patent US11160871B2, “SSTR-targeted conjugates and particles and formulations thereof” (TARVEDA THERAPEUTICS, INC., priority 2015, dated 2021)
Like-named read-outs stand apart in the source and are kept apart here.

Columns and labels:
[1] = test system: NIC-H524 tumor xenograft model (SSTR2 expressing); test: Dose response study in NIC-H524 tumor xenograft model; assay type: in vivo
Procedure: A dose response study was carried out in NIC-H524 tumor xenograft model (SSTR2 expressing) with a single dose of Conjugate 57. Doses evaluated were 0.5 mg/kg, 1.0 mg/kg, and 2.0 mg/kg.

[2] = Plasma protein binding; assay type: in vitro ADME; details: for fraction unbound at 1 uM: read-out: Free fraction at 1 uM (%); for fraction unbound at 10 uM: read-out: Free fraction at 10 uM (%)
Description: Plasma protein binding is not concentration dependent and is consistent across species.

[3] = test system: passage 3 IMR-32 tumors; test: IMR-32 tumor model; assay type: in vivo, mice
Procedure: Further, mice bearing passage 3 IMR-32 tumors were dosed with Conjugate 57 either at 2.0 mg/kg or 1.5 mg/kg once a week for two weeks with a vehicle negative control. […] The 1.5 mpk group only lost an average of 2.0%. All mice recovered once dosing was complete.

[4] = test system: NCI-H524 small cell lung cancer model; test: NCI-H524 small cell lung cancer model, tumor volume and body weight; assay type: in vivo
Description: (§1) NCI-H524 over expresses SSTR2. […] There was minimal body weight loss and favorable toxicology.

[5] = as above; assay type: in vivo; details: in vivo; read-out: maximum tolerated dose (MTD)
Description: as §1

[6] = test system: NCI-H69 tumors; test: NCI-H69 tumor volume study, 2 doses; assay type: in vivo, mice
Procedure: In another study, 10 mice bearing NCI-H69 tumors were given 2 doses of Conjugate 57 at 2 mg/kg each. 9 mice bearing NCI-H69 tumors were given 2 doses of Conjugate 57 at 1.3 mg/kg each. All 10 animals dosed at 2 mg/kg had no detectable tumors at study end. Conjugate 57 More than half (5 out of 9) animals dosed at 1.3 mg/kg had no detectable tumors at study end.

[7] = test system: H69 tumor; test: Histological staining of PH3 and CC3 in periphery, middle and core of H69 tumor; assay type: in vivo
Description: Histological staining of PH3 and CC3 in periphery, middle and core of H69 tumor after Conjugate 57 treatment was shown in FIG. 22A and FIG. 22B. The periphery sample was taken from roughly the outside ⅓ of the tumor. The core sample was taken from roughly the center ⅓ of the tumor. The middle sample was taken from roughly ⅓ in between these locations. Using a 40× high-powered objective, positively stained cells were counted, one field per animal, 3 animals per treatment group. Each field was roughly 500 μm in size. In general, the PH3 staining was strongest on the periphery and decreased as you moved towards the center of the tumor.

[8] = single dose 0.5, 1.0 and 2.0 mg/kg

COc1cc2cc(c1Cl)N(C)C(=O)C[C@H](OC(=O)[C@H](C)N(C)C(=O)CCSSC[C@H](NC(=O)[C@@H]1CSSC[C@H](NC(=O)[C@H](N)Cc3ccccc3)C(=O)N[C@@H](Cc3ccc(O)cc3)C(=O)N[C@H](Cc3c[nH]c4ccccc34)C(=O)N[C@@H](CCCCN)C(=O)N[C@@H]([C@@H](C)O)C(=O)N1)C(N)=O)[C@]1(C)O[C@H]1[C@H](C)[C@@H]1C[C@@](O)(NC(=O)O1)[C@H](OC)/C=C/C=C(\C)C2 [Conjugate 57]
dose response (tumor volume) [1, 8]: clear dose response
tolerability (body weight change) [1, 8]: all doses are well-tolerated
tumor response (tumor volume) ([1]; single dose of 2 mg/kg): significant regression
fraction unbound at 1 uM ([2]; Dog plasma): 0.044
fraction unbound at 10 uM ([2]; Dog plasma): 0.033
fraction unbound at 1 uM ([2]; Human plasma): 0.078
fraction unbound at 10 uM ([2]; Human plasma): 0.078
fraction unbound at 1 uM ([2]; Mouse plasma): 0.082
fraction unbound at 10 uM ([2]; Mouse plasma): 0.094
fraction unbound at 1 uM ([2]; Rat plasma): 0.063
fraction unbound at 10 uM ([2]; Rat plasma): 0.074
average body weight loss after the second dosing event ([3]; 2.0 mg/kg once a week for two weeks): 8.0%
mice showing complete regression ([3]; both treatment groups, 2.0 mg/kg or […] once a week for two weeks): 10 out of 10
tumor response (mean tumor volume) ([4]; 2 mg/kg (MTD) and 1 mg/kg): complete tumor regressions
tolerability (mean body weight change) ([4]; in vivo): well tolerated
MTD [5]: 2 mg/kg
animals with no detectable tumors at study end ([6]; 2 doses at 1.3 mg/kg each, 9 mice): 5 out of 9
animals with no detectable tumors at study end ([6]; 2 doses at 2 mg/kg each, 10 mice): 10
Number of cells with positive CC3 stain, Core ([7]; 24 h): 50.3
Number of cells with positive CC3 stain, Middle ([7]; 24 h): 27.0
Number of cells with positive CC3 stain, Periphery ([7]; 24 h): 9.7
Number of cells with positive PH3 stain, Core ([7]; 24 h): 74.7
Number of cells with positive PH3 stain, Middle ([7]; 24 h): 122.3
Number of cells with positive PH3 stain, Periphery ([7]; 24 h): 158.3
Number of cells with positive CC3 stain, Core ([7]; 72 h): 106.7
Number of cells with positive CC3 stain, Middle ([7]; 72 h): 72.0
Number of cells with positive CC3 stain, Periphery ([7]; 72 h): 41.0
Number of cells with positive PH3 stain, Core ([7]; 72 h): 113.0
Number of cells with positive PH3 stain, Middle ([7]; 72 h): 144.3
Number of cells with positive PH3 stain, Periphery ([7]; 72 h): 215.7
